Data published in US8815590B2, “Composition and method for differentiation of human embryonic stem cells” (Stem Cells for Safer Medicines Limited, priority 2009, dated 2014).

Columns and labels:
Human ESCs [SHEF3] [1] = assay: Differentiation towards definitive endoderm: immunostaining and RT-PCR of endodermal markers; assay type: cell-based; conditions: 2 μM, feeder-free on Matrigel in mTeSR1, up to 7 days
Procedure: Human ESCs [SHEF3] were maintained feeder-free on Matrigel® in chemically defined mTeSR1® media and treated with 2 μM 1M for the days indicated. (A) Expression of the endodermal markers FoxA2, Sox17 and HNF4α were analysed by immunofluorescence. Treatment with compound 1M led to expression of all markers after 7 days treatment. Scale bar represents 50 μm. (B) ESCs were harvested on day 7 following treatment with 1M for the indicated days. RNA was extracted and RT-PCR analyses performed using primers selective for the genes indicated. […] (C) BIO induces differentiation towards the DE. SHEF3 ESCs were treated with 2 μM BIO for the times indicated and immunostained with antibodies towards the endodermal markers FOXA2, SOX17 and HNF4α. (D) Compound 1L also induces differentiation towards the DE. SHEF1 ESCs were treated with 2 μM 1L for the times indicated and immunostained with antibodies towards the endodermal markers FOXA2 and HNF4α.
ESCs were cultured feeder-free on Matrigel®-coated plates in mTeSR1® media, supplemented with 2 μM compound 1M for 7 days with the media being refreshed every-other day. Definitive endoderm cultures were passaged with collagenase (1 mg/ml) and plated at a ratio of 1:10 on Matrigel® in KO DMEM supplemented with glutamine, penicillin/streptomycin, NEAA, 2% (v/v) KOSR, 10 ng/ml HGF (Peprotech) and 10 ng/ml FGF4 and cultured for a further 7 days with the media being refreshed every-other day. To allow for maturation of the HLCs, 10 ng/ml oncostatin M (Peprotech) and 10^−7 dexamethasone (SIGMA) were added to the above media and the cells were cultured for an additional 7 days with fresh media every-other day.
(§1) Total RNA was isolated and purified using TRIzol Reagent (Invitrogen), following the manufacturer's instructions. All RNA samples were treated with DNase I (Ambion) before cDNA synthesis to eliminate any contaminating genomic DNA. RNA (1 μg) was reverse transcribed into cDNA using Oligo(dT)15 (Promega) and SuperScript II (Invitrogen). Gene-specific PCR was carried out using primers and annealing temperatures outlined in Table 2.
ESCs were cultured on Matrigel®-coated lummox (Greiner Bio One) trays and fixed with 4% paraformaldehyde (PFA) for 20 minutes at room temperature. Cells were permeabilised in PBST (with 0.1% Triton X-100) and blocked in 10% blocking reagent (Roche) before incubating with primary antibodies in 2% blocking reagent overnight at 4° C. After washing in PBS, cells were incubated with FITC-conjugated secondary antibodies (Vector Labs) for 3 hours at room temperature. After further washing, the cells were stained with 4,6-diamidino-2-phenylindole (DAPI) (SIGMA), washed again and mounted in MOWIOL. […]

Human ESCs [SHEF3] [2] = assay: Flow cytometry of pluripotency surface markers Tra-1-60 and SSEA4 in treated human ESCs; assay type: cell-based
Procedure: (A) Images show typical colonies formed following the indicated treatments. The scale bars represent 1 mm. (B) Histogram plots of ESCs analysed by flow cytometry following immunostaining with antibodies against the pluripotency markers Tra-1-60 or SSEA4. (C) RNA was extracted from the cells and RT-PCR analyses performed using primers specific to the pluripotency genes OCT4 and NANOG and to the house-keeping gene β-ACTIN. (D) Western blot analysis was performed on protein extracted from the cells and immunoblotted with antibodies specific to Oct4. Blots were stripped and reprobed with anti-Gapdh antibodies to assess equal loading. […] SHEF3 cells were treated with the indicated concentration of 1O for 7 days. Images show typical colony morphology. (F) Histogram plots of ESCs analysed by flow cytometry following staining with Tra-1-60 and SSEA4 antibodies. Analysis of percent positive cells and mean fluorescent intensity are indicated on the plots. (G) RT PCR analysis for the expression of OCT4 and NANOG. Bands for each of the genes were from the same gel with intervening samples removed. (H) Western blot analysis of OCT4 protein expression. Proteins bands were from the same immunoblot with intervening samples removed.
(§2) SHEF1 and SHEF3 human ESCs were obtained from the UKSCB and cultured as outlined in their protocols. Briefly, ESCs were maintained on mitomycin C-inactivated mouse embryonic fibroblast (MEF) feeder layers in KnockOut Dulbecco's modified Eagle's medium (KO DMEM) (Invitrogen) supplemented with 20% (vol/vol) KO serum replacement (KOSR; Invitrogen), 1 mM non-essential amino acids (NEAA; Invitrogen), 1 mM glutamine (Invitrogen), 0.1 mM 2-mercaptoethanol (BioRad), penicillin/streptomycin, and 4 ng/ml recombinant human FGF2 (Peprotech). Cultures were passage using 1 mg/ml collagenase at a ratio of 1:8 to 1:12 every 7 days. Cultures were transferred to a feeder-free, chemically defined culture system on ESC-qualified Matrigel® (BD) coated plates in mTeSR1® (Stem Cell Technologies) media according to Stem Cell Technologies' protocol.
ESCs were trypsinised (0.05% Trypsin-EDTA) for 10 minutes at 37° C. and resuspended in PBS containing 2% (v/v) FBS (FBS/PBS). […] Cells were washed and stained with secondary fluorescein isothiocyanate (FITC)-conjugated antibodies (SIGMA) for a further 30 minutes, if required. Flow cytometry was performed using a FACSCanto cytometer (Becton Dickenson) and the data were analysed with FACSDiva software. Dead cells were excluded for analyses based on forward and side scatter parameters.

Human ESCs [SHEF3] [3] = assay: Colony morphology, RT-PCR and Western blot of OCT4/NANOG in treated human ESCs; assay type: cell-based
Procedure: Human ESCs [SHEF3] were treated with the indicated concentrations of BIO or compound 1M or left untreated as a control and cultured for 7 days. (A) Images show typical colonies formed following the indicated treatments. The scale bars represent 1 mm. (B) Histogram plots of ESCs analysed by flow cytometry following immunostaining with antibodies against the pluripotency markers Tra-1-60 or SSEA4. (C) RNA was extracted from the cells and RT-PCR analyses performed using primers specific to the pluripotency genes OCT4 and NANOG and to the house-keeping gene β-ACTIN. (D) Western blot analysis was performed on protein extracted from the cells and immunoblotted with antibodies specific to Oct4. Blots were stripped and reprobed with anti-Gapdh antibodies to assess equal loading. (E) Compound 1O also induces differentiation of human ESCs. SHEF3 cells were treated with the indicated concentration of 1O for 7 days. Images show typical colony morphology. (F) Histogram plots of ESCs analysed by flow cytometry following staining with Tra-1-60 and SSEA4 antibodies. Analysis of percent positive cells and mean fluorescent intensity are indicated on the plots. (G) RT PCR analysis for the expression of OCT4 and NANOG. Bands for each of the genes were from the same gel with intervening samples removed. (H) Western blot analysis of OCT4 protein expression. Proteins bands were from the same immunoblot with intervening samples removed.
as §2, §1
Cell lysates (20 μg) were prepared, separated by SDS-PAGE and transferred to nitrocellulose as described previously (Welham et al., 1994). Immunoblotting was carried out using primary antibodies at the following dilutions: 1:5,000 anti-Oct4 (Santa Cruz Biotechnology; sc-9081); 1:2000 anti-GAPDH (sc-20357); 1:10,000 anti-phospho (Ser33/37/Thr41) β-catenin (Cell signalling Technology; CST 9561); 1:1000 anti-β-catenin (CST 9562). Anti-rabbit antibodies conjugated to horseradish peroxidise (DAKO) were used at 1:10,000 and blots were developed using ECL Advance (GE Healthcare) or ChemiGlow (Alpha Innotech) according to manufacturer's directions. Images were captured and analysed using the ImageQuant RT ECL system (GE Healthcare). Blots were stripped and reprobed as described previously (Welham et al., 1994).

ESCs [SHEF1] [4] = assay: RT-PCR of Activin/Nodal pathway and differentiation marker genes; assay type: cell-based, human; conditions: 10 μM with 2 μM 1M
Procedure: (§3) (A) RNA was extracted from ESCs [SHEF1] cultured for 7 days in the presence of 2 μM 1M for the days indicated. RT-PCR analyses were performed using primers selective for the genes indicated. (B) ESCs [SHEF1] were treated with 2 μM 1M alone or in combination with 10 μM SB43125 (S) for the days indicated and RT-PCR performed on the extracted RNA. (C) ESCs [SHEF3] were treated with 1M alone or in combination with 100 ng/ml Activin A (A) for the days indicated and RT-PCR performed. (D). ESCs [SHEF1] were treated with 2 μM 1M, or 100 ng/ml ActivinA (A) alone or in combination with 1M for 5 days. Expression of the endoderm markers FoxA2 and HNF4α was analysed by immunofluorescence. The number of percent positive cells averaged from 3 fields of view +/−SD are indicated. Scale bar represents 50 μm. (E) ESCs [SHEF1] were treated with 2 μM 1M, or 100 ng/ml ActivinA (A) alone or in combination with 1M for 5 days. Expression of the DE marker CXCR4 was alaysed by flow cytometry.
as §1

ESCs [SHEF1] [5] = assay: Immunofluorescence of endoderm markers FoxA2 and HNF4α, percent positive cells; assay type: cell-based, human; conditions: 5 days
Procedure: as §3
ESCs were cultured on Matrigel®-coated lummox (Greiner Bio One) trays and fixed with 4% paraformaldehyde (PFA) for 20 minutes at room temperature. Cells were permeabilised in PBST (with 0.1% Triton X-100) and blocked in 10% blocking reagent (Roche) before incubating with primary antibodies in 2% blocking reagent overnight at 4° C. After washing in PBS, cells were incubated with FITC-conjugated secondary antibodies (Vector Labs) for 3 hours at room temperature. After further washing, the cells were stained with 4,6-diamidino-2-phenylindole (DAPI) (SIGMA), washed again and mounted in MOWIOL. The following antibodies and dilutions were used: goat-anti-FoxA2 (1:100, R&D. Systems), mouse anti-Sox17 (1:50, R&D Systems), rabbit anti-HNF4α (1:100, Santa Cruz), rabbit anti-AFP (1:100, DAKO), rabbit anti-TTR (1:100, DAKO). Images were captured on a Zeiss 510 Meta confocal microscope using a 40× objective.

ESCs [SHEF1] [6] = assay: Flow cytometry of the DE marker CXCR4; assay type: cell-based, human; conditions: 2 μM 1M, 100 ng/ml Activin A, alone or in combination, 5 days
Procedure: as §3
ESCs were trypsinised (0.05% Trypsin-EDTA) for 10 minutes at 37° C. and resuspended in PBS containing 2% (v/v) FBS (FBS/PBS). […] Flow cytometry was performed using a FACSCanto cytometer (Becton Dickenson) and the data were analysed with FACSDiva software. […]

ESCs = assay: RT-PCR of Activin/Nodal pathway and differentiation marker genes; assay type: cell-based, human; conditions: 100 ng/ml Activin A with 1M, 7 days, SHEF3
Procedure: as §3, §1

[7] = MEF culture, concentration 0.5, 7 days
[8] = MEF culture, concentration 2, 7 days
[9] = mTeSR1, concentration 0.5, 7 days
[10] = mTeSR1, concentration 2, 7 days
[11] = 100 ng/ml Activin A with 2 μM 1M

O=C1NC(=O)C2=C1c1cn(c3ccccc13)CCOCCOCCOCCn1cc2c2ccccc21 [1L]
Differentiation towards the DE (immunostaining FOXA2, SOX17, HNF4α) (Human ESCs [SHEF3] [1]): induced differentiation towards the DE

O=C1NC(=O)C2=C1c1cn(c3ccccc13)CCCCC(O)CCCCn1cc2c2ccccc21 [1O]
Expression of pluripotency markers Tra-1-60 and SSEA4 by flow cytometry (in words) (Human ESCs [SHEF3] [2]; 7 days treatment): decreased expression of Tra-1-60 and SSEA4 | OCT4 and NANOG gene expression (RT-PCR) (Human ESCs [SHEF3] [3]; 7 days treatment): loss of OCT4 and NANOG gene expression | Oct4 protein expression (Western blot) (Human ESCs [SHEF3] [3]; 7 days treatment): loss of OCT4 protein expression | Proliferation and differentiation of human ESCs (colony morphology) (Human ESCs [SHEF3] [3]; 7 days, on MEFs in KO DMEM or on Matrigel in mTeSR1, 1M at 2 μM): induced similar differentiation

O=C1Nc2cc(Br)ccc2/C1=C1/Nc2ccccc2/C1=N\O [BIO, reference compound]
Tra1-60 % pos (Human ESCs [SHEF3] [2]; MEF culture, concentration 0.5 (unit not given), 7 days): 82.2% | SSEA4 % pos (Human ESCs [SHEF3] [2]; [7]): 91.3% | SSEA4 mean (mean fluorescence intensity) (Human ESCs [SHEF3] [2]; [7]): 6002 | Tra1-60 mean (mean fluorescence intensity) (Human ESCs [SHEF3] [2]; [7]): 9497 | Tra1-60 % pos (Human ESCs [SHEF3] [2]; MEF culture, concentration 2 (unit not given), 7 days): 75.1% | SSEA4 % pos (Human ESCs [SHEF3] [2]; [8]): 83.3% | SSEA4 mean (mean fluorescence intensity) (Human ESCs [SHEF3] [2]; [8]): 4006 | Tra1-60 mean (mean fluorescence intensity) (Human ESCs [SHEF3] [2]; [8]): 7441 | Tra1-60 % pos (Human ESCs [SHEF3] [2]; mTeSR1 (feeder-free, Matrigel), concentration 0.5, 7 days): 73.7% | Tra1-60 % pos (Human ESCs [SHEF3] [2]; mTeSR1 (feeder-free, Matrigel), concentration 2, 7 days): 40.5% | SSEA4 % pos (Human ESCs [SHEF3] [2]; [9]): 69.2% | SSEA4 mean (mean fluorescence intensity) (Human ESCs [SHEF3] [2]; [9]): 5871 | Tra1-60 mean (mean fluorescence intensity) (Human ESCs [SHEF3] [2]; [9]): 8194 | SSEA4 % pos (Human ESCs [SHEF3] [2]; [10]): 72.5% | SSEA4 mean (mean fluorescence intensity) (Human ESCs [SHEF3] [2]; [10]): 1410 | Tra1-60 mean (mean fluorescence intensity) (Human ESCs [SHEF3] [2]; [10]): 890 | Differentiation towards the DE (immunostaining FOXA2, SOX17, HNF4α) (Human ESCs [SHEF3] [1]): induced differentiation towards the DE

NC(=O)c1ccc(-c2nc(-c3ccccn3)c(-c3ccc4c(c3)OCO4)[nH]2)cc1 [SB43125, reference compound]
Effect on 1M-induced GSC and FOXA2 expression (ESCs [SHEF1] [4]): dramatically reduced | Inhibition of 1M-induced NODAL expression (ESCs [SHEF1] [4]): only partially inhibited

B1: Activin A: member of the TGFβ superfamily which binds to the same receptors as Nodal, used to mimic Nodal activity in vitro (protein, UniProt P08476 311-426, looked up)
Inhibin beta A chain: GLECDGKVNICCKKQFFVSFKDIGWNDWIIAPSGYHANYCEGECPSHIAGTSGSSLSFHSTVINHYRMRGHSPFANLKSCCVPTKLRPMSMLYYDDGQNIIKKDIQNMIVEECGCS
modifications: Inhibin beta A chain homodimer
Effect of Activin A on generation of 1M-induced HNF4α expressing cells (ESCs [SHEF1] [5]; [11]): inhibit generation of 1M-induced HNF4α expressing cells | Effect of addition of Activin A on 1M-induced FoxA2 expression (ESCs [SHEF1] [5]; [11]): did not further enhance | FOXA2 expressing cells in the entire population (ESCs [SHEF1] [5]; 2 μM 1M or 100 ng/ml Activin A): 8% | HNF4α-expressing cells (ESCs [SHEF1] [5]; 2 μM 1M or 100 ng/ml Activin A): 3% | CXCR4 expression by flow cytometry (ESCs [SHEF1] [6]): 26.5% | 1M-induced expression of AFP in the presence of Activin A (ESCs): lost
